Data as given in ChEMBL document CHEMBL6134892, “Discovery and Evaluation of DA-302168S as an Efficacious Oral Small-Molecule Glucagon-Like Peptide-1 Receptor Agonist” (J Med Chem, 2025).

Tests used:
[1] = biological target: hERG (KCNH2) (Homo sapiens, UniProt Q12809); test: Inhibition of human ERG at 30 uM by whole-cell patch clamp technique relative to control; assay type: toxicity
[2] = Metabolic stability in human liver microsomes assessed as intrinsic clearance at 1 uM measured after 5 to 45 mins in presence of NADPH by LC-MS/MS analysis; assay type: ADME, Microsome; conditions: time 5-45 min, read-out: CLH
[3] = biological target: Voltage-gated inwardly rectifying potassium channel KCNH2 (Homo sapiens, UniProt Q12809); test: Inhibition of human ERG by whole-cell patch clamp technique; assay type: toxicity
Voltage-gated inwardly rectifying potassium channel KCNH2, sequence (Q12809 whole entry): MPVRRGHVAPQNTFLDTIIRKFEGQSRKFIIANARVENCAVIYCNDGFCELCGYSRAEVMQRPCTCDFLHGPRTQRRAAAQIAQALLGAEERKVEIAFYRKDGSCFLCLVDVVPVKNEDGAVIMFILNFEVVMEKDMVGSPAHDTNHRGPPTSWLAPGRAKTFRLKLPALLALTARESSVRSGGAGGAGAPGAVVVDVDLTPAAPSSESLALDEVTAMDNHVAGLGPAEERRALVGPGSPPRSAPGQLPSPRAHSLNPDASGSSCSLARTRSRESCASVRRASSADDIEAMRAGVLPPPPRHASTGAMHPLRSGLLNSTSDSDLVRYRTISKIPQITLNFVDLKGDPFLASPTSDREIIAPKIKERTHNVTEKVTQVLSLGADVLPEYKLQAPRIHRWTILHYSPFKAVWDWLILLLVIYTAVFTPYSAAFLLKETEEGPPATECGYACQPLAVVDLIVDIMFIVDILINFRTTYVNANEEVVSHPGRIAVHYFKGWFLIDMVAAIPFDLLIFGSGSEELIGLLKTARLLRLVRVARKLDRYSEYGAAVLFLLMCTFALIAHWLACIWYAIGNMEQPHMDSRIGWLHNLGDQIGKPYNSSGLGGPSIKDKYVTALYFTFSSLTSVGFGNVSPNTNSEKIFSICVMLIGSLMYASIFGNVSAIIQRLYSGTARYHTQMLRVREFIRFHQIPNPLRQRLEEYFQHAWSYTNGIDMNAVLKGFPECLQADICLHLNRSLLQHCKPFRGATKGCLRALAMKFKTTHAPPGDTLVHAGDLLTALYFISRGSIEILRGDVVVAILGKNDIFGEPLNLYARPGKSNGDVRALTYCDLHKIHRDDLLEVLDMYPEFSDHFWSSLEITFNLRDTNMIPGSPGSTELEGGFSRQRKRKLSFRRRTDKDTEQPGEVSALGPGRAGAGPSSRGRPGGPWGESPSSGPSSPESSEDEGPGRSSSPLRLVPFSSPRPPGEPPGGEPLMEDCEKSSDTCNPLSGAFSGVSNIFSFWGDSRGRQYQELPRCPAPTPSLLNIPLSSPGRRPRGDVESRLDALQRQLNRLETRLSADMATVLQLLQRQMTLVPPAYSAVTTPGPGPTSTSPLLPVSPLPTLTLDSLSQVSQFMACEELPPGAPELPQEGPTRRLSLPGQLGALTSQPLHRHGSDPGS

[4] = Metabolic stability in human liver microsomes assessed as half life at 1 uM measured after 5 to 45 mins in presence of NADPH by LC-MS/MS analysis; assay type: ADME, Microsome; conditions: time 5-45 min
[5] = Metabolic stability in human liver microsomes assessed as hepatic clearance at 1 uM measured after 5 to 45 mins in presence of NADPH by LC-MS/MS analysis; assay type: ADME, Microsome; conditions: time 5-45 min
[6] = biological target: Glucagon-like peptide 1 receptor (Homo sapiens, UniProt P43220); test: Agonist activity at human GLP-1R expressed in HEK293 cells coexpressing CRE LUC incubated for 5 hrs by luciferase based microplate reader analysis; assay type: functional, cell-based
Glucagon-like peptide 1 receptor, sequence (P43220 whole entry): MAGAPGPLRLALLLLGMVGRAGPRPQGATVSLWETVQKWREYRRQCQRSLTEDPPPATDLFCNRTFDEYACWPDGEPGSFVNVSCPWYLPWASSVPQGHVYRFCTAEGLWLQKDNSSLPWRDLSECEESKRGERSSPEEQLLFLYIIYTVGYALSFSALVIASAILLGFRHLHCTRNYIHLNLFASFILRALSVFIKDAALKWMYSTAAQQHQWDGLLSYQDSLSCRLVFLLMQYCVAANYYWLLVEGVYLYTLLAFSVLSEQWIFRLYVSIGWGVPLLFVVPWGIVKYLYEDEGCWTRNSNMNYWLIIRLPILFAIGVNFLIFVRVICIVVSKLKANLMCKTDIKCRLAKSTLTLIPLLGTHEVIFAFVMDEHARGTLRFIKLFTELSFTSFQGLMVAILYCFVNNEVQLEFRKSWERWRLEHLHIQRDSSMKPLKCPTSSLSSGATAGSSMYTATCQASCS

hERG (KCNH2), sequence (Q12809 whole entry): as the sequence (Q12809 whole entry) above

CLint scaled at 1 µM [2] [mL/min/kg]	half-life at 1 µM [4] [h]	CLhep predicted at 1 µM [5] [mL/min/kg]	EC50 [6] [µM]	Structure (SMILES)	inhibition at 30 µM [1] [%]	IC50 [3] [µM]
15	1.93	8.7	–	O=C(O)c1ccc2nc(Cc3ccc(-c4cccc(OCc5ccc(Cl)c6cc(Cl)oc56)n4)cc3F)n(C[C@@H]3CCO3)c2c1	< 50	> 30
–	–	–	0.0135	Cc1cc(-c2cccc(OCc3ccc(C#N)cc3F)n2)ccc1Cc1nc2ccc(C(=O)O)cc2n1C[C@@H]1CCO1	–	–
